This assay concerns the target T1, human Cav2.2 (Homo sapiens, UniProt Q00975).
T1 construct: IMR32 cells endogenously expressing human Cav2.2; endogenous in cells; host or cells: IMR32 cells (human neuroblastoma)
Briefly: Assessment of calcium channel activity using FLIPR (Ca2+ influx in IMR32 cells). It counts as cell-based. As to conditions: IMR32 cells endogenously expressing human Cav2.2, Calcium 4 dye, 60 minute pre-incubation, 2 μM nifedipine, depolarized with 80 mM KCl, 5 mM CaCl2. The protocol: (i) In Vitro Methods—Assessment of Calcium Channel Activity Using FLIPR:
IMR32 cells endogenously expressing human Cav2.2 were assayed for Ca^2+ influx using a no-wash calcium indicator dye (Calcium 4 dye: Molecular Probes) and FLIPR technology (Lubin, M. L.; Reitz, T. L.; Todd, M. J.; Flores, C. M.; Qin, N.; Xin, H. Assay and Drug Development Technologies 2006, 4(6), 689-694.). The IMR32 cells were maintained in MEM media containing 10% (v/v) FBS, 1% (v/v) antibiotic/antimitotic, 1% (v/v) sodium pyruvate and 1% (v/v) MEM NEAA. Following dissociation in 0.05% (v/v) trypsin/EDTA, cells were seeded into black 1×96-well plates (Corning Cellbind) at a density of 1−1.2×10^5 cells/well and incubated in the maintenance media above for 48 hours at 37° C. Immediately prior to performing the assay the media was removed and cells were loaded for 1.5 hours with 1×Calcium 4 dye prepared in HBSS (137 mM NaCl, 5.4 mM KCl, 0.25 mM Na2HPO4, 0.44 mM KH2PO4, 1.3 mM CaCl2, 1 mM MgSO4, 4.2 mM NaHCO3) containing HEPES pH 7.4 at room temperature. After dye loading and a subsequent 60 minute pre-incubation with compounds (full log dilutions from 10 μM to 0.1 nM) in the presence of 1.3 mM CaCl2 and 2 μM nifedipine to block endogenous L-type channels, the external Ca^2+ concentration was increased to 5 mM CaCl2 and the cells concomitantly depolarized with 80 mM KCl to assay channel activity. To determine the IC50 values, the percent inhibition of the compound at each concentration was determined relative to the activity in the absence of inhibitor, and data was fitted using non-linear regression sigmoidal dose response curve analysis with GraphPad Prism®.

pIC50: −log10 of the molar value.

T1 sequence (Q00975 whole entry): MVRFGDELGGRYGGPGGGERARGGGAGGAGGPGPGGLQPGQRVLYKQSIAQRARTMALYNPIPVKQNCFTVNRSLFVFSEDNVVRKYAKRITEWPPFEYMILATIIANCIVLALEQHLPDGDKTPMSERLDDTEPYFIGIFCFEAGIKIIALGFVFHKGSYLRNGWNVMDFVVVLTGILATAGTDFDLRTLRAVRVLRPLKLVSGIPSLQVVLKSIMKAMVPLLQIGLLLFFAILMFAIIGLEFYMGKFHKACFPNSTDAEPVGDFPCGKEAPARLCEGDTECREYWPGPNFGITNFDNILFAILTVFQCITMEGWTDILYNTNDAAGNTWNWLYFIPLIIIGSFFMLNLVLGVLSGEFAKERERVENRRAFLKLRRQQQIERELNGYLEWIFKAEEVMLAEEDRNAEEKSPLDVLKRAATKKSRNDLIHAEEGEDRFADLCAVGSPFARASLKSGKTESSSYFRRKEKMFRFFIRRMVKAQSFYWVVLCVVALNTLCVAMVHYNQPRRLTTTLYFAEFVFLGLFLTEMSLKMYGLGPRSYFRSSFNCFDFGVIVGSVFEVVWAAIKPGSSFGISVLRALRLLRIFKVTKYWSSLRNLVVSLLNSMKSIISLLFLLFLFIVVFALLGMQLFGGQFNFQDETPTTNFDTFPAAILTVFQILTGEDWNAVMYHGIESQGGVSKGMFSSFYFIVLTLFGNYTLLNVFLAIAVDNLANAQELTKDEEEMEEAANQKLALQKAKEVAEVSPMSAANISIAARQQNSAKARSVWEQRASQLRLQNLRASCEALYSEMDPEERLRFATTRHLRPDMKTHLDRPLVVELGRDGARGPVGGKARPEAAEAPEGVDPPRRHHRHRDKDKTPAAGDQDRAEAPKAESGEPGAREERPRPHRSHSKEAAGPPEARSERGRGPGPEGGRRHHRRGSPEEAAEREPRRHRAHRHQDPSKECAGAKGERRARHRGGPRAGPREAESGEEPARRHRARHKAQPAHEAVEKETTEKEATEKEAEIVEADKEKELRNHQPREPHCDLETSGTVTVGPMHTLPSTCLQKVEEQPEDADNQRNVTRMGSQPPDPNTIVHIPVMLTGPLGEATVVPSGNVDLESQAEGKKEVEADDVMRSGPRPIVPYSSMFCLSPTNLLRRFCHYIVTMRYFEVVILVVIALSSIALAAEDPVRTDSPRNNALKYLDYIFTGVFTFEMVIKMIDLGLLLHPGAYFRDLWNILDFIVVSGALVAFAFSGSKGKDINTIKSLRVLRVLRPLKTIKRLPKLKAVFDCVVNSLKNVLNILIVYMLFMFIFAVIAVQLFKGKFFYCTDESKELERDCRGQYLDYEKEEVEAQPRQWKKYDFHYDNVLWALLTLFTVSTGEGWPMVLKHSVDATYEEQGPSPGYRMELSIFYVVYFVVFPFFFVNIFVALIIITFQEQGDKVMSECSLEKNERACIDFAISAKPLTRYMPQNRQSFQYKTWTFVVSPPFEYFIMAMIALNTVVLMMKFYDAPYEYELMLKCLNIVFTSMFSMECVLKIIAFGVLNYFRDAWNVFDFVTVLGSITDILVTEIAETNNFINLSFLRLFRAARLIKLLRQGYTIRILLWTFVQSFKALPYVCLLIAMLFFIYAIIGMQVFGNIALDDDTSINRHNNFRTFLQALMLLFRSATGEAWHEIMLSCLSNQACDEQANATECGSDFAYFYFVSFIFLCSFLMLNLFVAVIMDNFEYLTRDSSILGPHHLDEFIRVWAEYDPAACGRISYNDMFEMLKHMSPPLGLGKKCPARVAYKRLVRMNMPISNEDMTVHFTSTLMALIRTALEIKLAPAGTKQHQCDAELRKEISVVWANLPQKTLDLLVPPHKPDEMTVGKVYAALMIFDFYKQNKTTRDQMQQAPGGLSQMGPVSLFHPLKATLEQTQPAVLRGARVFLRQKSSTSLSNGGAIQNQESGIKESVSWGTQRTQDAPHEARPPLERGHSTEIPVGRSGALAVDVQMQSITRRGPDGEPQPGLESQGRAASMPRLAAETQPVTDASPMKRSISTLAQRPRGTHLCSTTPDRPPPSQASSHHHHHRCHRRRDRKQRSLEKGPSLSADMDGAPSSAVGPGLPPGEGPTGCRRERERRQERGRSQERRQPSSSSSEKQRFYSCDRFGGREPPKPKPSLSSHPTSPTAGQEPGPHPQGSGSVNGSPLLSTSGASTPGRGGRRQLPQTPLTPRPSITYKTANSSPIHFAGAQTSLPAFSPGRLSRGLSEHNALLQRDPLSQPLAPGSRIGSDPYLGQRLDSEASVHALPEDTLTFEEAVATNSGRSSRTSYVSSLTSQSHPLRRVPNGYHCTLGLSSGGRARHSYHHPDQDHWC
T1 sequence (P54289 25-956 partner limits assumed): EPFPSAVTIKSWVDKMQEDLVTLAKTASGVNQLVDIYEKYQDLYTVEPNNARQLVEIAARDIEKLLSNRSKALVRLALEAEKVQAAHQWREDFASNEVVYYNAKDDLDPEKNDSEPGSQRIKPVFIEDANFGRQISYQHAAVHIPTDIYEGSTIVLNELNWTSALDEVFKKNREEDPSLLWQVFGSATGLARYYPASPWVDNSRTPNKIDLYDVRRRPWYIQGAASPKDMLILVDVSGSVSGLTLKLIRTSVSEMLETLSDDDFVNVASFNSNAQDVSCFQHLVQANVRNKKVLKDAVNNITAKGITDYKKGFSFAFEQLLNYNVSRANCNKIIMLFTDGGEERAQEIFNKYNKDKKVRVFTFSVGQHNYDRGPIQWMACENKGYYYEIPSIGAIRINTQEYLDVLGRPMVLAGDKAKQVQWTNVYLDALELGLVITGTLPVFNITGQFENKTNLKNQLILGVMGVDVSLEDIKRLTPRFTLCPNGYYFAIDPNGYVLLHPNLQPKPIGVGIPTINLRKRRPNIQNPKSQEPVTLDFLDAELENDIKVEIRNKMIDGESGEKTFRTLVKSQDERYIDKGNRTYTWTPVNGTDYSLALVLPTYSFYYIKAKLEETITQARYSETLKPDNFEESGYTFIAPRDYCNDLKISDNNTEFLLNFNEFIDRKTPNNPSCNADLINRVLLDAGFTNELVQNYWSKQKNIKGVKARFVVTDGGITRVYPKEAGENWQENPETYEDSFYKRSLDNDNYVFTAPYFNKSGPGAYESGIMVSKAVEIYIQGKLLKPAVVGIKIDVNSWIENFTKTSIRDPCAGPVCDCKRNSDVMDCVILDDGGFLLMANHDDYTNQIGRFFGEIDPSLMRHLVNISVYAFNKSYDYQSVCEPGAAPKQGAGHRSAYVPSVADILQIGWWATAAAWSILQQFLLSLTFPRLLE
T1 sequence (P54289 957-1103 partner limits assumed): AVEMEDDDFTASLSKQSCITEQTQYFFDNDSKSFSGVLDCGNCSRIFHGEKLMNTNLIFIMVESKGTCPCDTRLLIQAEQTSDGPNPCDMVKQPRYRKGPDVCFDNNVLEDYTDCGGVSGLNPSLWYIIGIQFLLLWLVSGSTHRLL
T1 sequence (P54284 whole entry partner): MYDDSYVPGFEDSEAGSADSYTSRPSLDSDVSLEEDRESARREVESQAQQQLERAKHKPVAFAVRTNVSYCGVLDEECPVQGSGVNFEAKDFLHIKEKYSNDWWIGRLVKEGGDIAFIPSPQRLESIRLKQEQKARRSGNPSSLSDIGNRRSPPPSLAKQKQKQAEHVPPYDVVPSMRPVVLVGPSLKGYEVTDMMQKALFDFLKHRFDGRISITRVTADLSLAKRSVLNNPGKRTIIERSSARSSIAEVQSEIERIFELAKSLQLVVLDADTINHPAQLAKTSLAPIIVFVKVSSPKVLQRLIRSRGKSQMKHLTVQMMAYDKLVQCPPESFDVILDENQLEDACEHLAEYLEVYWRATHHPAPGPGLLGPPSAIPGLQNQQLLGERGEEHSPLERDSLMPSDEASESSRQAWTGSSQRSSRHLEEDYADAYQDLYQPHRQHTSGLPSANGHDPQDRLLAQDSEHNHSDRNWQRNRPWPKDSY

With `Cc1nccn1[C@H]1CC[C@@H]2CN(c3cccc(C(F)(F)F)n3)C[C@@H]21` [Example 61, (3aR,4S,6aS)-4-(2-methyl-1H-imidazol-1-yl)-2-[6-(trifluoromethyl)pyridin-2-yl]octahydrocyclopenta[c]pyrrole], the pIC50 was 5.45.

Take `FC(F)(F)c1cccc(N2C[C@H]3CC[C@H](n4ccnc4-c4ccccc4)[C@H]3C2)n1` [Example 62, (3aR,4S,6aS)-4-(2-phenyl-1H-imidazol-1-yl)-2-[6-(trifluoromethyl)pyridin-2-yl]octahydrocyclopenta[c]pyrrole]: the pIC50 was 5.99.

As for `Cc1cnn([C@H]2CC[C@@H]3CN(c4cccc(C(F)(F)F)n4)C[C@@H]32)c1` [Example 63, (3aR,4S,6aS)-4-(4-methyl-1H-pyrazol-1-yl)-2-[6-(trifluoromethyl)pyridin-2-yl]octahydrocyclopenta[c]pyrrole], the pIC50 is 5.56.

On to `Fc1cccc2ncn([C@H]3CC[C@@H]4CN(c5cccc(C(F)(F)F)n5)C[C@@H]43)c12` [Example 64, 7-fluoro-1-{(3aR,4S,6aS)-2-[6-(trifluoromethyl)pyridin-2-yl]octahydrocyclopenta[c]pyrrol-4-yl}-1H-benzimidazole], for which the pIC50 is 5.44.

For `FC(F)(F)c1cccc(N2C[C@H]3CC[C@H](n4ncc5ccccc54)[C@H]3C2)n1` [Example 65, 1-{(3aR,4S,6aS)-2-[6-(trifluoromethyl)pyridin-2-yl]octahydrocyclopenta[c]pyrrol-4-yl}-1H-indazole], the pIC50 is 5.31.

`Cc1ccn([C@H]2CC[C@@H]3CN(c4cccc(C(F)(F)F)n4)C[C@@H]32)n1` [Example 66, (3aR,4S,6aS)-4-(3-methyl-1H-pyrazol-1-yl)-2-[6-(trifluoromethyl)pyridin-2-yl]octahydrocyclopenta[c]pyrrole]: the pIC50 is 5.24.

On to `Cc1cn([C@H]2CC[C@@H]3CN(c4cccc(C(F)(F)F)n4)C[C@@H]32)cn1` [Example 67, (3aR,4S,6aS)-4-(4-methyl-1H-imidazol-1-yl)-2-[6-(trifluoromethyl)pyridin-2-yl]octahydrocyclopenta[c]pyrrole], for which the negative-log IC50 (pIC50) was 5.36.

In the case of `O[C@H]1[C@H]2CN(c3cccc(C(F)(F)F)n3)C[C@H]2C[C@H]1n1ccnc1` [Example 68, (3aR,4S,5R,6aS)-5-(1H-imidazol-1-yl)-2-[6-(trifluoromethyl)pyridin-2-yl]octahydrocyclopenta[c]pyrrol-4-ol], the pIC50 was 4.97.

As for `O[C@H]1[C@H]2CN(c3cccc(C(F)(F)F)n3)C[C@H]2C[C@@H]1n1ccnc1` [Example 69, (3aR,4S,5S,6aS)-5-(1H-imidazol-1-yl)-2-[6-(trifluoromethyl)pyridin-2-yl]octahydrocyclopenta[c]pyrrol-4-ol], the pIC50 is 5.04.

Turning to `C[C@]1(NC(=O)[C@@H]2C[C@@H](F)CN2)CC[C@@H]2CN(c3cccc(C(F)(F)F)n3)C[C@@H]21` [Example 70, (4R)-4-fluoro-N-{(3aR,4S,6aS)-4-methyl-2-[6-(trifluoromethyl)pyridin-2-yl]octahydrocyclopenta[c]pyrrol-4-yl}-L-prolinamide], the pIC50 is 5.51.

Take `CN[C@@H](CC(C)C)C(=O)N[C@@]1(C)CC[C@@H]2CN(c3cccc(C(F)(F)F)n3)C[C@@H]21` [Example 71, N^2-methyl-N-{(3aR,4S,6aS)-4-methyl-2-[6-(trifluoromethyl)pyridin-2-yl]octahydrocyclopenta[c]pyrrol-4-yl}-L-leucinamide]: the pIC50 is 6.11.

`C[C@]1(NC(=O)CCC(F)(F)F)CC[C@@H]2CN(c3cccc(C(F)(F)F)n3)C[C@@H]21` [Example 72, 4,4,4-trifluoro-N-{(3aR,4S,6aS)-4-methyl-2-[6-(trifluoromethyl)pyridin-2-yl]octahydrocyclopenta[c]pyrrol-4-yl}butanamide]: the pIC50 is 5.94.
